# Assay results taken from US6552080B1, “Fungicidal compounds having a fluorovinyl-or fluoropropenyl-oxyphenyloxime moiety and process for the preparation thereof” (Korea Research Institute of Chemical Technology, priority 1999, dated 2003).
# Test system: Pyricularia oryzae Carvara KA301
# Assay: not given
# Assay type: in vivo
# Details: 2 ppm
row,SMILES,Fungicidal Activities RCV (C.V.) [%]
1,CON=C(C(=O)OC)c1ccccc1CON=C(C)c1cccc(OC(F)=C(c2ccc(Br)cc2)C(F)(F)F)c1 [Compound 187],97
2,CNC(=O)C(=NOC)c1ccccc1CON=C(C)c1cccc(OC(F)=C(c2ccccc2)C(F)(F)F)c1 [Compound 191],100

# Same assay, conditions: 50 ppm
row,SMILES,Fungicidal Activities RCV (C.V.) [%]
1,CON=C(C(=O)OC)c1ccccc1CON=C(C)c1cccc(OC(F)=C(c2ccc(Br)cc2)C(F)(F)F)c1 [Compound 187],83
2,CNC(=O)C(=NOC)c1ccccc1CON=C(C)c1cccc(OC(F)=C(c2ccccc2)C(F)(F)F)c1 [Compound 191],100

# Same assay, conditions: Rice Blast; concentration 2 ppm
row,SMILES,"RCV (Fungicidal Activities, C.V.) [%]"
1,COC=C(C(=O)OC)c1ccccc1CON=Cc1cccc(OC(F)=Cc2ccc(C)cc2)c1 [Compound 3],0
2,COC=C(C(=O)OC)c1ccccc1CON=C(C)c1cccc(OC(F)=Cc2ccc(Cl)cc2)c1 [Compound 54],97
3,CON=C(C(=O)OC)c1ccccc1CON=Cc1cccc(OC(F)=C(c2ccccc2)C(F)(F)F)c1 [Compound 131],43
4,COC=C(C(=O)OC)c1ccccc1CON=Cc1cccc(OC(F)=Cc2cccc(F)c2)c1 [Compound 11],33

# Same assay, conditions: Rice Blast; concentration 10 ppm
row,SMILES,"RCV (Fungicidal Activities, C.V.) [%]"
1,COC=C(C(=O)OC)c1ccccc1CON=Cc1cccc(OC(F)=Cc2ccc(C)cc2)c1 [Compound 3],80
2,COC=C(C(=O)OC)c1ccccc1CON=C(C)c1cccc(OC(F)=Cc2ccc(Cl)cc2)c1 [Compound 54],99
3,COC=C(C(=O)OC)c1ccccc1CON=Cc1cccc(OC(F)=Cc2cccc(F)c2)c1 [Compound 11],86

# Same assay, conditions: Rice Blast; concentration 50 ppm
row,SMILES,"RCV (Fungicidal Activities, C.V.) [%]"
1,COC=C(C(=O)OC)c1ccccc1CON=Cc1cccc(OC(F)=Cc2ccc(C)cc2)c1 [Compound 3],100
2,COC=C(C(=O)OC)c1ccccc1CON=C(C)c1cccc(OC(F)=Cc2ccc(Cl)cc2)c1 [Compound 54],100
3,CON=C(C(=O)OC)c1ccccc1CON=Cc1cccc(OC(F)=C(c2ccccc2)C(F)(F)F)c1 [Compound 131],80
4,COC=C(C(=O)OC)c1ccccc1CON=Cc1cccc(OC(F)=Cc2cccc(F)c2)c1 [Compound 11],100

# Test system: Botrytis cinerae
# Assay: Fungicidal activity against Cucumber Gray Mold Rot (CGM) disease
# Assay type: in vivo
# Details: 50 ppm
row,SMILES,Fungicidal Activities CGM (C.V.) [%]
1,CON=C(C(=O)OC)c1ccccc1CON=C(C)c1cccc(OC(F)=C(c2ccc(Br)cc2)C(F)(F)F)c1 [Compound 187],0
2,CNC(=O)C(=NOC)c1ccccc1CON=C(C)c1cccc(OC(F)=C(c2ccccc2)C(F)(F)F)c1 [Compound 191],68

# Same assay, conditions: Cucumber Gray Mold Rot; concentration 50 ppm
row,SMILES,"CGM (Fungicidal Activities, C.V.) [%]"
1,COC=C(C(=O)OC)c1ccccc1CON=Cc1cccc(OC(F)=Cc2ccc(C)cc2)c1 [Compound 3],46
2,COC=C(C(=O)OC)c1ccccc1CON=C(C)c1cccc(OC(F)=Cc2ccc(Cl)cc2)c1 [Compound 54],51
3,CON=C(C(=O)OC)c1ccccc1CON=Cc1cccc(OC(F)=C(c2ccccc2)C(F)(F)F)c1 [Compound 131],42
4,COC=C(C(=O)OC)c1ccccc1CON=Cc1cccc(OC(F)=Cc2cccc(F)c2)c1 [Compound 11],17

# Test system: Phytophthora infestans
# Assay: not given
# Assay type: in vivo
# Details: 2 ppm
row,SMILES,Fungicidal Activities TLB (C.V.) [%]
1,CON=C(C(=O)OC)c1ccccc1CON=C(C)c1cccc(OC(F)=C(c2ccc(Br)cc2)C(F)(F)F)c1 [Compound 187],25
2,CNC(=O)C(=NOC)c1ccccc1CON=C(C)c1cccc(OC(F)=C(c2ccccc2)C(F)(F)F)c1 [Compound 191],0

# Same assay, conditions: 50 ppm
row,SMILES,Fungicidal Activities TLB (C.V.) [%]
1,CON=C(C(=O)OC)c1ccccc1CON=C(C)c1cccc(OC(F)=C(c2ccc(Br)cc2)C(F)(F)F)c1 [Compound 187],0
2,CNC(=O)C(=NOC)c1ccccc1CON=C(C)c1cccc(OC(F)=C(c2ccccc2)C(F)(F)F)c1 [Compound 191],60

# Same assay, conditions: Tomato Late Blight; concentration 50 ppm
row,SMILES,"TLB (Fungicidal Activities, C.V.) [%]"
1,COC=C(C(=O)OC)c1ccccc1CON=Cc1cccc(OC(F)=Cc2ccc(C)cc2)c1 [Compound 3],84
2,COC=C(C(=O)OC)c1ccccc1CON=C(C)c1cccc(OC(F)=Cc2ccc(Cl)cc2)c1 [Compound 54],84
3,CON=C(C(=O)OC)c1ccccc1CON=Cc1cccc(OC(F)=C(c2ccccc2)C(F)(F)F)c1 [Compound 131],4
4,COC=C(C(=O)OC)c1ccccc1CON=Cc1cccc(OC(F)=Cc2cccc(F)c2)c1 [Compound 11],85

# Test system: Puccinia recondita
# Assay: Fungicidal activity against Wheat Leaf Rust (WLR) disease
# Assay type: in vivo
# Details: 2 ppm
row,SMILES,Fungicidal Activities WLR (C.V.) [%]
1,CON=C(C(=O)OC)c1ccccc1CON=C(C)c1cccc(OC(F)=C(c2ccc(Br)cc2)C(F)(F)F)c1 [Compound 187],95
2,CNC(=O)C(=NOC)c1ccccc1CON=C(C)c1cccc(OC(F)=C(c2ccccc2)C(F)(F)F)c1 [Compound 191],99

# Same assay, conditions: 50 ppm
row,SMILES,Fungicidal Activities WLR (C.V.) [%]
1,CON=C(C(=O)OC)c1ccccc1CON=C(C)c1cccc(OC(F)=C(c2ccc(Br)cc2)C(F)(F)F)c1 [Compound 187],100
2,CNC(=O)C(=NOC)c1ccccc1CON=C(C)c1cccc(OC(F)=C(c2ccccc2)C(F)(F)F)c1 [Compound 191],100

# Same assay, conditions: Wheat Leaf Rust; concentration 2 ppm
row,SMILES,"WLR (Fungicidal Activities, C.V.) [%]"
1,COC=C(C(=O)OC)c1ccccc1CON=Cc1cccc(OC(F)=Cc2ccc(C)cc2)c1 [Compound 3],96
2,COC=C(C(=O)OC)c1ccccc1CON=C(C)c1cccc(OC(F)=Cc2ccc(Cl)cc2)c1 [Compound 54],97
3,CON=C(C(=O)OC)c1ccccc1CON=Cc1cccc(OC(F)=C(c2ccccc2)C(F)(F)F)c1 [Compound 131],98
4,COC=C(C(=O)OC)c1ccccc1CON=Cc1cccc(OC(F)=Cc2cccc(F)c2)c1 [Compound 11],97

# Same assay, conditions: Wheat Leaf Rust; concentration 10 ppm
row,SMILES,"WLR (Fungicidal Activities, C.V.) [%]"
1,COC=C(C(=O)OC)c1ccccc1CON=Cc1cccc(OC(F)=Cc2ccc(C)cc2)c1 [Compound 3],98
2,COC=C(C(=O)OC)c1ccccc1CON=C(C)c1cccc(OC(F)=Cc2ccc(Cl)cc2)c1 [Compound 54],100
3,COC=C(C(=O)OC)c1ccccc1CON=Cc1cccc(OC(F)=Cc2cccc(F)c2)c1 [Compound 11],100

# Same assay, conditions: Wheat Leaf Rust; concentration 50 ppm
row,SMILES,"WLR (Fungicidal Activities, C.V.) [%]"
1,COC=C(C(=O)OC)c1ccccc1CON=Cc1cccc(OC(F)=Cc2ccc(C)cc2)c1 [Compound 3],100
2,COC=C(C(=O)OC)c1ccccc1CON=C(C)c1cccc(OC(F)=Cc2ccc(Cl)cc2)c1 [Compound 54],100
3,CON=C(C(=O)OC)c1ccccc1CON=Cc1cccc(OC(F)=C(c2ccccc2)C(F)(F)F)c1 [Compound 131],100
4,COC=C(C(=O)OC)c1ccccc1CON=Cc1cccc(OC(F)=Cc2cccc(F)c2)c1 [Compound 11],100

# Test system: Erysiphae graminis
# Assay: Fungicidal activity against Barley Powdery Mildew (BPM) disease
# Assay type: in vivo
# Details: 2 ppm
row,SMILES,Fungicidal Activities BPM (C.V.) [%]
1,CON=C(C(=O)OC)c1ccccc1CON=C(C)c1cccc(OC(F)=C(c2ccc(Br)cc2)C(F)(F)F)c1 [Compound 187],97
2,CNC(=O)C(=NOC)c1ccccc1CON=C(C)c1cccc(OC(F)=C(c2ccccc2)C(F)(F)F)c1 [Compound 191],100

# Same assay, conditions: 50 ppm
row,SMILES,Fungicidal Activities BPM (C.V.) [%]
1,CON=C(C(=O)OC)c1ccccc1CON=C(C)c1cccc(OC(F)=C(c2ccc(Br)cc2)C(F)(F)F)c1 [Compound 187],98
2,CNC(=O)C(=NOC)c1ccccc1CON=C(C)c1cccc(OC(F)=C(c2ccccc2)C(F)(F)F)c1 [Compound 191],100

# Same assay, conditions: Barley Powdery Mildew; concentration 2 ppm
row,SMILES,"BPM (Fungicidal Activities, C.V.) [%]"
1,COC=C(C(=O)OC)c1ccccc1CON=Cc1cccc(OC(F)=Cc2ccc(C)cc2)c1 [Compound 3],86
2,COC=C(C(=O)OC)c1ccccc1CON=C(C)c1cccc(OC(F)=Cc2ccc(Cl)cc2)c1 [Compound 54],99
3,CON=C(C(=O)OC)c1ccccc1CON=Cc1cccc(OC(F)=C(c2ccccc2)C(F)(F)F)c1 [Compound 131],76
4,COC=C(C(=O)OC)c1ccccc1CON=Cc1cccc(OC(F)=Cc2cccc(F)c2)c1 [Compound 11],98

# Same assay, conditions: Barley Powdery Mildew; concentration 10 ppm
row,SMILES,"BPM (Fungicidal Activities, C.V.) [%]"
1,COC=C(C(=O)OC)c1ccccc1CON=Cc1cccc(OC(F)=Cc2ccc(C)cc2)c1 [Compound 3],99
2,COC=C(C(=O)OC)c1ccccc1CON=C(C)c1cccc(OC(F)=Cc2ccc(Cl)cc2)c1 [Compound 54],100
3,COC=C(C(=O)OC)c1ccccc1CON=Cc1cccc(OC(F)=Cc2cccc(F)c2)c1 [Compound 11],99

# Same assay, conditions: Barley Powdery Mildew; concentration 50 ppm
row,SMILES,"BPM (Fungicidal Activities, C.V.) [%]"
1,COC=C(C(=O)OC)c1ccccc1CON=Cc1cccc(OC(F)=Cc2ccc(C)cc2)c1 [Compound 3],100
2,COC=C(C(=O)OC)c1ccccc1CON=C(C)c1cccc(OC(F)=Cc2ccc(Cl)cc2)c1 [Compound 54],100
3,CON=C(C(=O)OC)c1ccccc1CON=Cc1cccc(OC(F)=C(c2ccccc2)C(F)(F)F)c1 [Compound 131],100
4,COC=C(C(=O)OC)c1ccccc1CON=Cc1cccc(OC(F)=Cc2cccc(F)c2)c1 [Compound 11],100

# Test system: Rhizoctonia solani AG-1
# Assay: Fungicidal activity against Rice Sheath Blight (RSB) disease
# Details: 2 ppm
row,SMILES,Fungicidal Activities RSB (C.V.) [%]
1,CON=C(C(=O)OC)c1ccccc1CON=C(C)c1cccc(OC(F)=C(c2ccc(Br)cc2)C(F)(F)F)c1 [Compound 187],20
2,CNC(=O)C(=NOC)c1ccccc1CON=C(C)c1cccc(OC(F)=C(c2ccccc2)C(F)(F)F)c1 [Compound 191],35

# Same assay, conditions: 50 ppm
row,SMILES,Fungicidal Activities RSB (C.V.) [%]
1,CON=C(C(=O)OC)c1ccccc1CON=C(C)c1cccc(OC(F)=C(c2ccc(Br)cc2)C(F)(F)F)c1 [Compound 187],85
2,CNC(=O)C(=NOC)c1ccccc1CON=C(C)c1cccc(OC(F)=C(c2ccccc2)C(F)(F)F)c1 [Compound 191],75

# Same assay, conditions: Rice Sheath Blight; concentration 2 ppm
row,SMILES,"RSB (Fungicidal Activities, C.V.) [%]"
1,COC=C(C(=O)OC)c1ccccc1CON=C(C)c1cccc(OC(F)=Cc2ccc(Cl)cc2)c1 [Compound 54],50

# Same assay, conditions: Rice Sheath Blight; concentration 10 ppm
row,SMILES,"RSB (Fungicidal Activities, C.V.) [%]"
1,COC=C(C(=O)OC)c1ccccc1CON=C(C)c1cccc(OC(F)=Cc2ccc(Cl)cc2)c1 [Compound 54],80

# Same assay, conditions: Rice Sheath Blight; concentration 50 ppm
row,SMILES,"RSB (Fungicidal Activities, C.V.) [%]"
1,COC=C(C(=O)OC)c1ccccc1CON=Cc1cccc(OC(F)=Cc2ccc(C)cc2)c1 [Compound 3],60
2,COC=C(C(=O)OC)c1ccccc1CON=C(C)c1cccc(OC(F)=Cc2ccc(Cl)cc2)c1 [Compound 54],90
3,CON=C(C(=O)OC)c1ccccc1CON=Cc1cccc(OC(F)=C(c2ccccc2)C(F)(F)F)c1 [Compound 131],55
4,COC=C(C(=O)OC)c1ccccc1CON=Cc1cccc(OC(F)=Cc2cccc(F)c2)c1 [Compound 11],40
